In PMC5467912, “Asymmetric regulation of quorum-sensing receptors drives autoinducer-specific gene expression programs in Vibrio cholerae” (PLoS Genetics, 2017):
Several values for one entry are separate records, joined by “and”; a condition that tells them apart may be missing. Identical values can stand only once.

Target: T1, CqsS (Vibrio cholerae serotype O1, UniProt Q9KM66)
T1 construct: endogenous in cells; host or cells: V. cholerae WN1102 (ΔcqsA ΔluxQ/pBB1), derived from C6706str2
Test: cell-based
Conditions: for Light production: strain WN1102; for EC50: light production, reporter strain WN1102, 4 h at 30 °C

T1 sequence (Q9KM66 whole entry, looked up): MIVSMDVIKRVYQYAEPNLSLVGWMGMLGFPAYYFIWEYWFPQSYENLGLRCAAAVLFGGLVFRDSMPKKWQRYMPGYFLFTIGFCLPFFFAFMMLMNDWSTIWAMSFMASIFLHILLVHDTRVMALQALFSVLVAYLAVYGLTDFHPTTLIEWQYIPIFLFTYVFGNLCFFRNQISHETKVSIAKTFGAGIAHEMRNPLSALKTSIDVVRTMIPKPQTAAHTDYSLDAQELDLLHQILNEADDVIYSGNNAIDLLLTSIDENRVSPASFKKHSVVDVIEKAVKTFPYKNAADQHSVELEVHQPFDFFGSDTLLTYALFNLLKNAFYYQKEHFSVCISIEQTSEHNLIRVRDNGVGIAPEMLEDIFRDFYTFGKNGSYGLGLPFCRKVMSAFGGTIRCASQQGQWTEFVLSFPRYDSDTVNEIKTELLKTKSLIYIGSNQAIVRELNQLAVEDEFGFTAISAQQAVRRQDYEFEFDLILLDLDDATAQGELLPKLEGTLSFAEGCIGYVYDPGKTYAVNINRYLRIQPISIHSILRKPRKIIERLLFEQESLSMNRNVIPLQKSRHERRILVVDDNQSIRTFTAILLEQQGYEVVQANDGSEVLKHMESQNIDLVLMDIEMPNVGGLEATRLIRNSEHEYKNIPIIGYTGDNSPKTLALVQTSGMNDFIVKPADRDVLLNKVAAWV

Row | Compound | Light production (Agonist 0.0119209 nM) | Light production (Agonist 0.0476837 nM) | Light production (Agonist 0.190735 nM) | Light production (Agonist 0.762939 nM) | Light production (Agonist 3.05176 nM) | Light production (Agonist 12.207 nM) | Light production (Agonist 48.8281 nM) | Light production (Agonist 195.312 nM) | Light production (Agonist 781.25 nM) | Light production (Agonist 3125 nM) | Light production (Agonist 12500 nM) | Light production (Agonist 50000 nM) | EC50 | fold less potent than compound #1 (EC50 comparison)
1 | O=C(Cc1ccc(-c2ccccc2)cc1)NC1CCC1 [#8] | 17900 RLU and 10791 RLU and 14350 RLU | 11100 RLU and 15000 RLU and 11881 RLU | 26990 RLU and 16080 RLU and 18824 RLU | 24950 RLU and 23905 RLU | 48627 RLU and 40000 RLU and 32706 RLU | 75176 RLU and 69890 RLU and 67191 RLU | 1115870 RLU and 738497 RLU and 676886 RLU | 40840900 RLU and 39570670 RLU and 37676260 RLU | 91907700 RLU and 100480500 RLU and 102019900 RLU | 92588910 RLU and 118830300 RLU and 113054700 RLU | 89613410 RLU and 99998040 RLU and 103728600 RLU | 78185000 RLU and 81850050 RLU and 75936470 RLU | 53 nM | –
2 | CCCn1nnnc1NCc1ccc(N2CCCC2)cc1 [#3] | – | 13269 RLU and 14460 RLU and 11456 RLU | 18051 RLU and 20632 RLU and 16089 RLU | 27556 RLU and 29263 RLU and 25287 RLU | 53410 RLU and 57320 RLU and 53409 RLU | 598613 RLU and 571778 RLU and 545574 RLU | 17729790 RLU and 16188200 RLU and 18180520 RLU | 52331460 RLU and 53359300 RLU and 52422750 RLU | 72153380 RLU and 70458940 RLU and 74315090 RLU | 80807740 RLU and 76653980 RLU and 72594050 RLU | 69868890 RLU and 66115120 RLU and 65607710 RLU | 41204600 RLU and 38225840 RLU and 37314420 RLU | 14 nM | approximately 4 fold
3 | O=C(Cc1ccc(-c2ccccn2)cc1)NC1CCCC1 [#9] | 8704.7 RLU and 9014.1 RLU and 7722.8 RLU | 11317 RLU and 7830.7 RLU and 9751.2 RLU | 10595 RLU and 11217 RLU and 6363.6 RLU | 13636 RLU and 11364 RLU and 8044.7 RLU | 16879 RLU and 13647 RLU and 11676 RLU | 22994 RLU and 16264 RLU and 15148 RLU | 32335 RLU and 27200 RLU and 23011 RLU | 55190 RLU and 44311 RLU and 39030 RLU | 108075 RLU and 97949 RLU and 93072 RLU | 7362143 RLU and 7832704 RLU and 8085455 RLU | 55377500 RLU and 53818320 RLU and 53583010 RLU | 93123590 RLU and 90629940 RLU and 93211830 RLU | 1720 nM | –
4 | CCC(C)NC(=O)Cc1ccc(-c2ccccc2)cc1 (stereo not shown) [#7] | 14566 RLU and 10667 RLU and 7878.8 RLU | 16089 RLU and 13267 RLU and 10570 RLU | 18864 RLU and 15385 RLU and 12553 RLU | 24094 RLU and 21702 RLU and 17241 RLU | 32638 RLU and 25814 RLU and 24906 RLU | 48047 RLU and 41582 RLU and 31818 RLU | 81242 RLU and 67619 RLU and 51844 RLU | 183313 RLU and 159529 RLU and 160500 RLU | 10770860 RLU and 8237516 RLU and 9173585 RLU | 90855490 RLU and 84011930 RLU and 82291170 RLU | 122744100 RLU and 104793600 RLU and 103467300 RLU | 104239700 RLU and 95731630 RLU and 92148540 RLU | 403 nM | –
